Experimental findings from ChEMBL document CHEMBL4483862, “Open-source discovery of chemical leads for next-generation chemoprotective antimalarials” (2018) are described below.

The assay deals with Plasmodium berghei. Put plainly: Luciferase/luciferin-expressing antifolate-resistant parasites were used to infect a culture of HepG2 cells that were pre-incubated with compounds. Infected hepatocytes emit light due to the luciferase reaction. Assay results are presented as the percent inhibition of light emission compared to control. […]. Particulars: sporozoite; for IC90: read-out: LUCIFERASE INFECTION ASSAY - IC90. The class given is functional.

The mark [1] stands for this setting: read-out: LUCIFERASE INFECTION ASSAY - IC50.

With `CCN(CC)c1nc(N)c2c(N)nc3c(c2c1C#N)CC(=O)N3c1cc(Cl)cc(Cl)c1`, the IC90 is over 10 µM. Also, the IC50 (FFLUC_HILL_SLOPE 11.5, FFLUC_R_SQUARED 0.738, PBLUC_HILL_SLOPE 1.44, PBLUC_R_SQUARED 0.624, read-out: LUCIFERASE INFECTION ASSAY - IC50) was 4.18 µM.
For `N#Cc1cccc(CSc2nc(NC3CC3)c3ccccc3n2)c1`, the IC90 is over 10 µM. Moreover, where the note is “HEPG2TOX_HILL_SLOPE 0.422, HEPG2TOX_R_SQUARED 0.349, read-out: LUCIFERASE INFECTION ASSAY - IC50”, the IC50 is over 10 µM.
For `Cc1cc(C(=O)CSc2nnc(C3CC3)o2)c(C)n1-c1ccc2c(c1)CCC2`, the IC90 is over 10 µM. Moreover, where the note is “HEPG2TOX_HILL_SLOPE 7.74, HEPG2TOX_R_SQUARED 0.677, read-out: LUCIFERASE INFECTION ASSAY - IC50”, the IC50 is over 10 µM.
With `CCOC(=O)c1c(S(N)(=O)=O)c(C)n(-c2ccccc2)c1C`, the IC90 was over 10.2 µM. Besides, under setting [1], the IC50 was over 10.2 µM.
As for `O=C(NNC(=S)Nc1cccc(C(F)(F)F)c1)c1ccc(OC(F)(F)F)cc1`, the IC90 is over 7.8 µM. The IC50 under setting [1] was over 7.8 µM.
On to `CC(Oc1ccc(C(=O)c2ccc(F)cc2)cc1)C(=O)NC1(C#N)CCCCC1` (centres undefined), for which the IC90 was over 10 µM. Under “HEPG2TOX_HILL_SLOPE 6.49, HEPG2TOX_R_SQUARED 0.548, PBLUC_HILL_SLOPE 2.92, PBLUC_R_SQUARED 0.383, read-out: LUCIFERASE INFECTION ASSAY - IC50”, the IC50 was 7.61 µM.
With `C/C(=N\NC(=S)NC(C)(C)C)c1cc(Cl)cc(Cl)c1O`, the IC90 was over 9.87 µM. Also, the IC50 (FFLUC_HILL_SLOPE 16.6, FFLUC_R_SQUARED 0.277, read-out: LUCIFERASE INFECTION ASSAY - IC50) is over 9.87 µM.
As to `Cc1ccc(S(=O)(=O)Nc2ccc(Nc3nccn4c(-c5ccccc5N(C)C)cnc34)cc2)cc1`, the IC90 is over 6.62 µM. Also, the IC50 (PBLUC_HILL_SLOPE 3.26, PBLUC_R_SQUARED 0.262, read-out: LUCIFERASE INFECTION ASSAY - IC50) was found to be 3.47 µM.
On to `COc1ccc(-c2cc3c(cn2)nc(NCCc2cc(OC)ccc2OC)n3C)c(C)c1`, for which the IC90 was found to be 3.63 µM. The IC50 (HEPG2TOX_HILL_SLOPE 1.97, HEPG2TOX_R_SQUARED 0.898, PBLUC_HILL_SLOPE 1.3, PBLUC_R_SQUARED 0.74, read-out: LUCIFERASE INFECTION ASSAY - IC50) stood at 0.669 µM.
For `O=C(NNC(=O)c1nn(-c2ccccc2)cc1O)c1ccc2c(c1)OCO2`, the IC90 amounted to 6.28 µM. Besides, the IC50 (PBLUC_HILL_SLOPE 71.1, PBLUC_R_SQUARED 0.59, read-out: LUCIFERASE INFECTION ASSAY - IC50) came to 6.09 µM.
Consider `Cc1ccc2cc(CN(CC(C)C)C(=O)c3cccc(Cl)c3)c(=O)[nH]c2c1`, for which the IC90 was determined as 4.61 µM. For the same compound, where the note is “FFLUC_HILL_SLOPE 2.55, FFLUC_R_SQUARED 0.111, HEPG2TOX_HILL_SLOPE 13.7, HEPG2TOX_R_SQUARED 0.575, PBLUC_HILL_SLOPE 6.1, PBLUC_R_SQUARED 0.569, read-out: LUCIFERASE INFECTION ASSAY - IC50”, the IC50 stood at 3.21 µM.
For `Cc1occc1C(=O)N1CCN(C(=O)c2ccc3ccccc3c2)CC1`, the IC90 was over 2 µM. Under setting [1], the IC50 was over 2 µM.
Regarding `COc1ccc(-n2c(C)cc(C(=O)COC(=O)[C@@H](NS(=O)(=O)c3ccc4c(c3)OCCO4)C(C)C)c2C)cc1`, the IC90 was over 10 µM. Under setting [1], the IC50 is over 10 µM.
Take `CC(=N\Nc1ccc(F)cc1)/C(=N/O)C(=O)Nc1ccccc1`: the IC90 is over 10.5 µM. The IC50 under setting [1] was over 10.5 µM.
Consider `COc1ccc(C2c3c(C)nn(-c4ccccc4)c3N=C(c3ccccc3F)N2C2CC2)cc1` (centres undefined), for which the IC90 was over 10 µM. Further, for the setting “HEPG2TOX_HILL_SLOPE 5.27, HEPG2TOX_R_SQUARED 0.234, read-out: LUCIFERASE INFECTION ASSAY - IC50”, the IC50 was over 10 µM.
On to `O=S(=O)(NCc1cc(C(F)(F)F)cc(C(F)(F)F)c1)c1cc(C(F)(F)F)cc(C(F)(F)F)c1`, for which the IC90 is over 6.35 µM. For the same compound, the IC50 under setting [1] was over 6.35 µM.
For `Cc1ccc(NS(=O)(=O)c2ccc(NN=CC3C(=O)N(c4cccc(C(F)(F)F)c4)C(=O)c4ccccc43)c([N+](=O)[O-])c2)c(C)c1` (centres undefined), the IC90 is over 10 µM. For the same compound, the IC50 (PBLUC_HILL_SLOPE 19.2, PBLUC_R_SQUARED 0.393, read-out: LUCIFERASE INFECTION ASSAY - IC50) is 9.75 µM.
Turning to `N#Cc1ccnc(N2CCN(c3ncnc4scc(-c5ccccc5)c34)CC2)c1`, the IC90 was over 10 µM. The IC50 under setting [1] was over 10 µM.
For `CCn1nc(C(=O)N2CCN(c3ccccc3)CC2)c2c1CCN(Cc1cc(C)c(OC)cc1C)C2`, the IC90 is over 6.77 µM. Besides, the IC50 (HEPG2TOX_HILL_SLOPE 2.53, HEPG2TOX_R_SQUARED 0.945, PBLUC_HILL_SLOPE 5.03, PBLUC_R_SQUARED 0.659, read-out: LUCIFERASE INFECTION ASSAY - IC50) worked out at 4.44 µM.
Regarding `CC(C)C(=O)Nc1ccc(-c2nc3ccccc3[nH]2)cc1`, the IC90 is over 11.8 µM. For the same compound, the IC50 (FFLUC_HILL_SLOPE 2.58, FFLUC_R_SQUARED 0.591, PBLUC_HILL_SLOPE 1.21, PBLUC_R_SQUARED 0.595, read-out: LUCIFERASE INFECTION ASSAY - IC50) is 4.49 µM.
On to `CSc1nc2ccccc2c(=O)n1-c1c(C)cccc1C`, for which the IC90 was over 11.1 µM. Besides, the IC50 (PBLUC_HILL_SLOPE 11.2, PBLUC_R_SQUARED 0.357, read-out: LUCIFERASE INFECTION ASSAY - IC50) stood at 10.5 µM.
With `CN(CCOc1ccccc1F)C(=O)c1cc(S(=O)(=O)N2CCCC2)c[nH]1`, the IC90 was over 2 µM. Besides, the IC50 under setting [1] is over 2 µM.
For the compound `Cc1nn2c3ccccc3n(C)c2c1C(=O)N/N=C/c1ccc([N+](=O)[O-])o1`, the IC90 was over 10 µM. Further, under “PBLUC_HILL_SLOPE 2.48, PBLUC_R_SQUARED 0.513, read-out: LUCIFERASE INFECTION ASSAY - IC50”, the IC50 is 5.52 µM.
As to `CCn1c2ccccc2c2cc(N)ccc21`, the IC90 was over 10 µM. Moreover, the IC50 under setting [1] was over 10 µM.
As for `CC(=O)c1c(F)cccc1N1CCC(c2nc3ccccc3[nH]2)CC1`, the IC90 came to 5.87 µM. For the same compound, under setting [1], the IC50 came out at 2.87 µM.
Regarding `CC(C)c1ccccc1N(C(=O)c1cc2ccccc2o1)c1nc2ccccc2s1`, the IC90 is over 10 µM. Under “HEPG2TOX_HILL_SLOPE 3.13, HEPG2TOX_R_SQUARED 0.898, read-out: LUCIFERASE INFECTION ASSAY - IC50”, the IC50 is over 10 µM.
As for `N#Cc1ccccc1OC(=O)Nc1ccc(SC(F)(F)F)cc1`, the IC90 was found to be 1.82 µM. In addition, for the setting “HEPG2TOX_HILL_SLOPE 3.54, HEPG2TOX_R_SQUARED 0.941, PBLUC_HILL_SLOPE 4.88, PBLUC_R_SQUARED 0.753, read-out: LUCIFERASE INFECTION ASSAY - IC50”, the IC50 was 1.16 µM.
In the case of `FC(F)(F)c1cccnc1N1CCN(c2ccc(NC(=S)NCc3ccccc3)cn2)CC1`, the IC90 is over 6.98 µM. Besides, the IC50 under setting [1] is over 6.98 µM.
Regarding `Nc1nccnc1C(=O)Nc1ccc(C23CC4CC(CC(C4)C2)C3)cc1`, the 90% effect concentration (IC90) was found to be 9.45 µM. In addition, the IC50 (FFLUC_HILL_SLOPE 1.35, FFLUC_R_SQUARED 0.9, PBLUC_HILL_SLOPE 1.78, PBLUC_R_SQUARED 0.606, read-out: LUCIFERASE INFECTION ASSAY - IC50) is 2.75 µM.
On to `COc1cc(OC)cc(-c2cnc3cnc(-c4ccc(CO)cc4)cn23)c1`, for which the IC90 was over 9.13 µM. Moreover, for the setting “HEPG2TOX_HILL_SLOPE 5.84, HEPG2TOX_R_SQUARED 0.257, PBLUC_HILL_SLOPE 9, PBLUC_R_SQUARED 0.405, read-out: LUCIFERASE INFECTION ASSAY - IC50”, the IC50 amounted to 7.72 µM.
Turning to `COC(=O)c1ccc(-n2c(C)cc(C(=O)COC(=O)c3cc4c(=O)n5ccccc5nc4s3)c2C)cc1`, the IC90 is over 10 µM. Further, the IC50 under setting [1] worked out at 9.43 µM.
Take `C=CCNC(=O)CN(c1ccc(Br)cc1)S(C)(=O)=O`: the IC90 is over 9.5 µM. Further, under setting [1], the IC50 is over 9.5 µM.
Consider `CCOc1cccc(-c2cn3c(-c4ccc(CO)cc4)cnc3cn2)c1`, for which the IC90 turned out to be 0.828 µM. For the setting “HEPG2TOX_HILL_SLOPE 0.91, HEPG2TOX_R_SQUARED 0.879, PBLUC_HILL_SLOPE 2.96, PBLUC_R_SQUARED 0.698, read-out: LUCIFERASE INFECTION ASSAY - IC50”, the IC50 worked out at 0.395 µM.
Turning to `Clc1cccc(Cl)c1/C=C/c1cc[nH]n1`, the IC90 was over 13.8 µM. Further, the IC50 (HEPG2TOX_HILL_SLOPE 3.46, HEPG2TOX_R_SQUARED 0.979, PBLUC_HILL_SLOPE 12.7, PBLUC_R_SQUARED 0.349, read-out: LUCIFERASE INFECTION ASSAY - IC50) was 12 µM.
Turning to `Cc1nc(-c2ccc(CCNC(=O)c3ccc(S(C)(=O)=O)c([N+](=O)[O-])c3)cc2)cs1`, the IC90 turned out to be 5.46 µM. The IC50 (HEPG2TOX_HILL_SLOPE 14.7, HEPG2TOX_R_SQUARED 0.837, PBLUC_HILL_SLOPE 381, PBLUC_R_SQUARED 0.298, read-out: LUCIFERASE INFECTION ASSAY - IC50) amounted to 5.43 µM.
`c1ccc(Cn2c(-c3cccnc3)cc3cnc(Nc4ccc(N5CCOCC5)cc4)cc32)cc1`: the IC90 was found to be 8.6 µM. Besides, the IC50 (HEPG2TOX_HILL_SLOPE 16.1, HEPG2TOX_R_SQUARED 0.869, PBLUC_HILL_SLOPE 3.82, PBLUC_R_SQUARED 0.619, read-out: LUCIFERASE INFECTION ASSAY - IC50) worked out at 4.83 µM.
With `O=[N+]([O-])c1ccc(Oc2ccc(F)cc2Br)c2ccncc12`, the IC90 was found to be 9.13 µM. The IC50 (HEPG2TOX_HILL_SLOPE 8.14, 7.27, HEPG2TOX_R_SQUARED 0.719, 0.841, PBLUC_HILL_SLOPE 4.57, PBLUC_R_SQUARED 0.39, read-out: LUCIFERASE INFECTION ASSAY - IC50) was 5.65 µM.
